Results on 23 compounds are retold here after patent publication US9169254B2, “Spiroimidazolone derivative” (Chugai Seiyaku Kabushiki Kaisha, priority 2009, dated 2015).

In this assay the target is T1, human PTH1 receptor (Homo sapiens, UniProt Q03431).
T1 sequence (Q03431 27-593): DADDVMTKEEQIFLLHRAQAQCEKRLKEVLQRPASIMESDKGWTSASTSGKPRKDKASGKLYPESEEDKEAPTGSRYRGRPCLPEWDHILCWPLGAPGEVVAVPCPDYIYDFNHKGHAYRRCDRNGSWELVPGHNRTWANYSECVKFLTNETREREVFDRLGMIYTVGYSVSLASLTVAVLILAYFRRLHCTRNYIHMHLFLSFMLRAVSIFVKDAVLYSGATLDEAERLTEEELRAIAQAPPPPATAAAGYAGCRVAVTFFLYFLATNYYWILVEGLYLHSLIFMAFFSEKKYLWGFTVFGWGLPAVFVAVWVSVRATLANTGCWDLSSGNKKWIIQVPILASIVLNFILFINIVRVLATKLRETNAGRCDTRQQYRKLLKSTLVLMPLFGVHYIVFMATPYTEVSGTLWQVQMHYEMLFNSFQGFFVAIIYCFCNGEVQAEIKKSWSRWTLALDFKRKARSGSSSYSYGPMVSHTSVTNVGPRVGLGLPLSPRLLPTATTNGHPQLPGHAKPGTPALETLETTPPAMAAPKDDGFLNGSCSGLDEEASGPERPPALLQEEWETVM
Kind of assay: In vitro cAMP signal activity in HKRK-B7 cells (LLC-PK1 cells overexpressing the human PTH1 receptor). The following applies: HKRK-B7 cells; compound at 1×10^−3 M; cAMP produced as percentage of that produced by hPTH(1-34) at 100 nM. The assay is classed as cell-based.
Consider `Cc1cc(S(=O)(=O)NC2CCN(Cc3ccccc3)CC2)ccc1CCS(=O)(=O)N1CCC2(CC1)N=C(c1cccc(OC(F)(F)F)c1)NC2=O` [Compound 848, N-(1-benzyl-piperidin-4-yl)-3-methyl-4-{2-[4-oxo-2-(3-trifluoromethoxy-phenyl)-1,3,8-triaza-spiro[4.5]dec-1-ene-8-sulfonyl]-ethyl}-benzenesulfonamide], for which the “cAMP production activity (%)” value worked out at 77%.
Take `Cc1cc(C(=O)N2CCN(C(C)C)CC2)ccc1CCS(=O)(=O)N1CCC2(CC1)N=C(c1cccc(OC(F)(F)F)c1)NC2=O` [Compound 849, 8-{2-[4-(4-isopropyl-piperazine-1-carbonyl)-2-methyl-phenyl]-ethanesulfonyl}-2-(3-trifluoromethoxy-phenyl)-1,3,8-triaza-spiro[4.5]dec-1-en-4-one]: the “cAMP production activity (%)” value is given as 124%.
For the compound `O=C1NC(c2cccc(OC(F)(F)F)c2)=NC12CCN(S(=O)(=O)CCc1ccc3c(ccn3C[C@H](O)CO)c1)CC2` [Compound 850, 8-{2-[1-((S)-2,3-dihydroxy-propyl)-1H-indol-5-yl]-ethanesulfonyl}-2-(3-trifluoromethoxy-phenyl)-1,3,8-triaza-spiro[4.5]dec-1-en-4-one], the “cAMP production activity (%)” value was found to be 82%.
`Cc1cc(S(=O)(=O)NC[C@@H](O)CO)ccc1CCS(=O)(=O)N1CCC2(CC1)N=C(c1cccc(OC(F)(F)F)c1)NC2=O` [Compound 851, N—((R)-2,3-dihydroxy-propyl)-3-methyl-4-{2-[4-oxo-2-(3-trifluoromethoxy-phenyl)-1,3,8-triaza-spiro[4.5]dec-1-ene-8-sulfonyl]-ethyl}-benzenesulfonamide]: the “cAMP production activity (%)” value is on record as 83%.
On to `Cc1cc(S(=O)(=O)NCc2cccnc2)ccc1CCS(=O)(=O)N1CCC2(CC1)N=C(c1cccc(C(F)(F)F)c1)NC2=O` [Compound 852, 3-methyl-4-{2-[4-oxo-2-(3-trifluoromethyl-phenyl)-1,3,8-triaza-spiro[4.5]dec-1-ene-8-sulfonyl]-ethyl}-N-pyridin-3-ylmethyl-benzenesulfonamide], for which the “cAMP production activity (%)” value came to 58%.
Take `Cc1cc(S(=O)(=O)NC2CCC(O)CC2)ccc1CCS(=O)(=O)N1CCC2(CC1)N=C(c1cccc(C(F)(F)F)c1)NC2=O` (centres unmarked) [Compound 853, N-(4-hydroxy-cyclohexyl)-3-methyl-4-{2-[4-oxo-2-(3-trifluoromethyl-phenyl)-1,3,8-triaza-spiro[4.5]dec-1-ene-8-sulfonyl]-ethyl}-benzenesulfonamide]: the “cAMP production activity (%)” value was found to be 63%.
Under `Cc1cc(S(=O)(=O)NC(CO)(CO)CO)ccc1CCS(=O)(=O)N1CCC2(CC1)N=C(c1cccc(C(F)(F)F)c1)NC2=O` [Compound 854, N-(2-hydroxy-1,1-bis-hydroxymethyl-ethyl)-3-methyl-4-{2-[4-oxo-2-(3-trifluoromethyl-phenyl)-1,3,8-triaza-spiro[4.5]dec-1-ene-8-sulfonyl]-ethyl}-benzenesulfonamide] stands 80%.
As for `Cc1cc(CCS(=O)(=O)N2CCC3(CC2)N=C(c2cccc(OC(F)(F)F)c2)NC3=O)cc(C)c1OCCC(O)CO` (centres unmarked) [Compound 855, 8-{2-[4-(3,4-dihydroxy-butoxy)-3,5-dimethyl-phenyl]-ethanesulfonyl}-2-(3-trifluoromethoxy-phenyl)-1,3,8-triaza-spiro[4.5]dec-1-en-4-one], the figure is 82%; as for `Cc1cc(C(=O)N2CCCC2)ccc1CCS(=O)(=O)N1CCC2(CC1)N=C(c1ccc(F)c(C(F)(F)F)c1)NC2=O` [Compound 856, 2-(4-fluoro-3-trifluoromethyl-phenyl)-8-{2-[2-methyl-4-(pyrrolidine-1-carbonyl)-phenyl]-ethanesulfonyl}-1,3,8-triaza-spiro[4.5]dec-1-en-4-one], 81%; as for `Cc1cc(N2C(=O)CC[C@@H]2CO)ccc1CCS(=O)(=O)N1CCC2(CC1)N=C(c1ccc(F)c(C(F)(F)F)c1)NC2=O` [Compound 857, 2-(4-fluoro-3-trifluoromethyl-phenyl)-8-{2-[4-((R)-2-hydroxymethyl-5-oxo-pyrrolidin-1-yl)-2-methyl-phenyl]-ethanesulfonyl}-1,3,8-triaza-spiro[4.5]dec-1-en-4-one], 89%.
Regarding `Cc1cc(N2C(=O)CC[C@H]2CO)ccc1CCS(=O)(=O)N1CCC2(CC1)N=C(c1ccc(F)c(C(F)(F)F)c1)NC2=O` [Compound 858, 2-(4-fluoro-3-trifluoromethyl-phenyl)-8-{2-[4-((S)-2-hydroxymethyl-5-oxo-pyrrolidin-1-yl)-2-methyl-phenyl]-ethanesulfonyl}-1,3,8-triaza-spiro[4.5]dec-1-en-4-one], the “cAMP production activity (%)” value was 100%.
Take `Cc1cc(OC2CCN(C(=O)OC(C)(C)C)CC2)ccc1CCS(=O)(=O)N1CCC2(CC1)N=C(c1cccc(OC(F)(F)F)c1)NC2=O` [Compound 859, 4-(3-methyl-4-{2-[4-oxo-2-(3-trifluoromethoxy-phenyl)-1,3,8-triaza-spiro[4.5]dec-1-ene-8-sulfonyl]-ethyl}-phenoxy)-piperidine-1-carboxylic acid tert-butyl ester]: the “cAMP production activity (%)” value came to 26%.
As for `O=C1NC(c2cccc(OC(F)(F)F)c2)=NC12CCN(S(=O)(=O)CCc1cc(F)c(OCCC(O)CO)c(F)c1)CC2` (centres unmarked) [Compound 860, 8-{2-[4-(3,4-dihydroxy-butoxy)-3,5-difluoro-phenyl]-ethanesulfonyl}-2-(3-trifluoromethoxy-phenyl)-1,3,8-triaza-spiro[4.5]dec-1-en-4-one], the figure is 50%; as for `Cc1cc(N2CCC2=O)ccc1CCS(=O)(=O)N1CCC2(CC1)N=C(C1CCCCC1)NC2=O` [Compound 861, 2-cyclohexyl-8-{2-[2-methyl-4-(2-oxo-azetidin-1-yl)-phenyl]-ethanesulfonyl}-1,3,8-triaza-spiro[4.5]dec-1-en-4-one], 36%; as for `Cc1cc(N2C(=O)CN(C)C2=O)ccc1CCS(=O)(=O)N1CCC2(CC1)N=C(C1CCC(C)CC1)NC2=O` (centres unmarked) [Compound 862, 1-methyl-3-(3-methyl-4-{2-[2-(4-methyl-cyclohexyl)-4-oxo-1,3,8-triaza-spiro[4.5]dec-1-ene-8-sulfonyl]-ethyl}-phenyl)-imidazolidine-2,4-dione], 55%.
Take `Cc1cc(N2C(=O)NC(C)(C)C2=O)ccc1CCS(=O)(=O)N1CCC2(CC1)N=C(C1CCC(C)CC1)NC2=O` (centres unmarked) [Compound 863, 5,5-dimethyl-3-(3-methyl-4-{2-[2-(4-methyl-cyclohexyl)-4-oxo-1,3,8-triaza-spiro[4.5]dec-1-ene-8-sulfonyl]-ethyl}-phenyl)-imidazolidine-2,4-dione]: the “cAMP production activity (%)” value was 67%.
As for `Cc1cc(N2C(=O)NC(C)(C)C2=O)ccc1CCS(=O)(=O)N1CCC2(CC1)N=C(C1CCC(CCC(F)(F)F)CC1)NC2=O` (centres unmarked) [Compound 864, 5,5-dimethyl-3-[3-methyl-4-(2-{4-oxo-2-[4-(3,3,3-trifluoro-propyl)-cyclohexyl]-1,3,8-triaza-spiro[4.5]dec-1-ene-8-sulfonyl}-ethyl)-phenyl]-imidazolidine-2,4-dione], the figure is 100%; as for `Cc1cc(N2CCOC2=O)ccc1CCS(=O)(=O)N1CCC2(CC1)N=C(C1CCC(C)CC1)NC2=O` (centres unmarked) [Compound 865, 2-(4-methyl-cyclohexyl)-8-{2-[2-methyl-4-(2-oxo-oxazolidin-3-yl)-phenyl]-ethanesulfonyl}-1,3,8-triaza-spiro[4.5]dec-1-en-4-one], 8.9%.
Under `Cc1cc(N2COCC2=O)ccc1CCS(=O)(=O)N1CCC2(CC1)N=C(C1CCC(C)CC1)NC2=O` (centres unmarked) [Compound 866, 2-(4-methyl-cyclohexyl)-8-{2-[2-methyl-4-(4-oxo-oxazolidin-3-yl)-phenyl]-ethanesulfonyl}-1,3,8-triaza-spiro[4.5]dec-1-en-4-one] stands 47%; under `O=C1NC(C2CCC(CCC(F)(F)F)CC2)=NC12CCN(S(=O)(=O)CCc1cccc3c1ccn3C[C@@H](O)CO)CC2` (stereo partly drawn) [Compound 867, 8-{2-[1-((R)-2,3-dihydroxy-propyl)-1H-indol-4-yl]-ethanesulfonyl}-2-[4-(3,3,3-trifluoro-propyl)-cyclohexyl]-1,3,8-triaza-spiro[4.5]dec-1-en-4-one], 71%; under `Cc1cc(N(C)c2ncc[nH]2)cc(C)c1CCS(=O)(=O)N1CCC2(CC1)N=C(C1CCC(C)CC1)NC2=O` (centres unmarked) [Compound 868, 8-(2-{4-[(1H-imidazol-2-yl)-methyl-amino]-2,6-dimethyl-phenyl}-ethanesulfonyl)-2-(4-methyl-cyclohexyl)-1,3,8-triaza-spiro[4.5]dec-1-en-4-one], 77%.
With `Cc1cc(N2C(=O)NC(C)(C)C2=O)cc(C)c1CCS(=O)(=O)N1CCC2(CC1)N=C(C1CCC(C)CC1)NC2=O` (centres unmarked) [Compound 869, 3-(3,5-dimethyl-4-{2-[2-(4-methyl-cyclohexyl)-4-oxo-1,3,8-triaza-spiro[4.5]dec-1-ene-8-sulfonyl]-ethyl}-phenyl)-5,5-dimethyl-imidazolidine-2,4-dione], the “cAMP production activity (%)” value stood at 65%.
Under `Cc1cc(N2CCNCC2=O)ccc1CCS(=O)(=O)N1CCC2(CC1)N=C(C1CCC(C)CC1)NC2=O` (centres unmarked) [Compound 870, 2-(4-methyl-cyclohexyl)-8-{2-[2-methyl-4-(2-oxo-piperazin-1-yl)-phenyl]-ethanesulfonyl}-1,3,8-triaza-spiro[4.5]dec-1-en-4-one] stands 63%.
